In brackets after ≈: the same amount, converted by molar mass.
Tested on: aqueous kinetic solubility
Assay: High Content Assay for Compounds that inhibit the Assembly of the Perinucleolar Compartment: Aqueous Kinetic Solubility
Text: The perinucleolar compartment (PNC) is a non-membrane-bound nuclear subdomain that is associated with but structurally distinct from the nucleolus. The PNC is a heritable trait, in which the number of PNCs per cell in daughter cells often mimics that of their mother cells. The PNC is heterogeneous in shape, is stable through interphase, disassembles during mitosis, and reassembles in early G1. The PNC is concentrated with newly synthesized RNA polymerase III (pol III) RNAs (MRP RNA, RNAse P H1 RNA, hY RNAs[hY1, 2, 5], Alu RNA, and SRP [7SL] RNA) and RNA binding proteins (nucleolin, PTB, CUG-BP, KSRP, Raver1, Raver2, and Rod).
Extensive in vitro studies have shown that the PNC is unique to tumor cells and preferentially forms in tumor cells derived from solid tissues. Examination of cancer cell lines from various origins and malignant capacities has shown that PNC prevalence correlates with the malignancy of tumors and has the potential to be developed as a pan-cancer prognostic marker.
This bioassay provides profiling data on aqueous kinetic solubility (PBS @ pH 7.4) of some of the lead compounds developed for this project.
NIH Chemical Genomics Center [NCGC]
NIH Molecular Libraries Probe Centers Network [MLPCN] […]
5. Concentration of the supernatant was determined by LC-UV or LC-MS/MS

Work on `N=c1c2c(-c3ccccc3)c(-c3ccccc3)n(Cc3ccccc3)c2ncn1C1CCC(O)CC1` (stereo unspecified) yielded a solubility of 150 µM (≈ 71.2 µg/mL).

Source: PubChem BioAssay AID602443 (National Center for Advancing Translational Sciences (NCATS), 2012)
